This is an account of results in PMC4164784, “4E-BPs require non-canonical 4E-binding motifs and a lateral surface of eIF4E to repress translation” (Nature Communications, 2014).

The subject of one assay is CRM1. Further details: method as in PMID 15465908, PMID 10856257, PMID 9190288. Conditions: cited from earlier work.
The subject of assay [1] is endogenous eIF4E and HA-tagged 4E-BPs in S2 cells. Nature of the assay: Immunofluorescence localization in S2 cells. It is filed as cell-based, Drosophila melanogaster. The following applies: S2 cells, LMB 100 nM, 12 h.
The subject of a further assay is eIF4E. The following applies: 4E-BP1,2 non-canonical motifs; cited from earlier work. The source says:
The immunoprecipitation assays shown in Fig. 1e–g indicate that similar to CUP, Thor and 4E-T contain NC motifs that interact with the lateral binding surface of eIF4E. In human 4E-BP1,2, the NC IPGVTS/T motif (located C-terminally to the C motif), increases the binding affinity of the proteins for eIF4E by approximately three orders of magnitude. However, the IPGVTS/T motif is not conserved across the animal kingdom (Supplementary Fig. 2c). Nevertheless, several hydrophobic residues are present in the corresponding region in Dm Thor (residues Pro76–Pro84; Supplementary Fig. 2c). || Owing to their lack of conservation, it has remained unclear whether non-canonical motifs are present in all 4E-BPs[38]. […] At the functional level, non-canonical motifs have been proposed to play an auxiliary role and have been mainly implicated in the regulation of the affinity of eIF4E for the mRNA cap structure through allosteric effects. Specifically, the binding of the 4E-BP1,2 non-canonical ...

For the compound `CCC(=C/[C@H](C)C/C=C/C(C)=C/[C@@H](C)C(=O)[C@@H](C)[C@H](O)[C@@H](C)C/C(C)=C/C(=O)O)/C=C/[C@@H]1OC(=O)C=C[C@@H]1C` [LMB, Leptomycin B, reference compound], the “inhibition of nuclear export by CRM1 (in words)” value with CRM1 was “inhibits nuclear export by CRM1”. Further, in assay [1], the “nuclear accumulation of 4E-BP upon LMB (in words)” value is “induced the nuclear accumulation of CUP and 4E-T proteins”.

As to “human 4E-BP1,2: human eIF4E-binding proteins 1 and 2 with NC IPGVTS/T motif”, the “effect of NC motif binding on affinity of eIF4E for the cap structure (in words)” value in the assay on eIF4E is listed as “increases the affinity for the cap structure”.
